From patent US10195197B2, “Combination therapy with glutaminase inhibitors” (Calithera Biosciences, Inc., priority 2016, dated 2019) come the findings set out here.

Molecules are shown by their SMILES.

This test relates to JIMT-1 tumors. Description: JIMT-1 xenograft model, antitumor efficacy (in vivo TNBC model). Conditions: single agent paclitaxel, five doses at 10 mg/kg every other day at start of study; initial regression followed by rapid regrowth; P=0.0002. Here is the method:
In the JIMT-1 xenograft model, the antitumor efficacy was evaluated by treating established tumors (125 mm^3 at the start of dosing) with CB-839 both as a single agent and in combination with paclitaxel, a standard-of-care chemotherapeutic agent for the treatment of TNBC. The regimen for paclitaxel (five doses at 10 mg/kg delivered every other day at the start of study) was chosen to provide suboptimal efficacy to ensure a window to evaluate the potential impact of combination treatment.

In the case of `CC(=O)O[C@H]1C(=O)[C@@]2(C)[C@H]([C@H](OC(=O)c3ccccc3)[C@]3(O)C[C@H](OC(=O)[C@H](O)[C@@H](NC(=O)c4ccccc4)c4ccccc4)C(C)=C1C3(C)C)[C@]1(OC(C)=O)CO[C@@H]1C[C@@H]2O` [paclitaxel], the “TGI relative to vehicle control at the end of study” value worked out at 73%.
